Measured values from patent US10519504B2, “Methods for treatment of oncological disorders using epimetabolic shifters, multidimensional intracellular molecules, or environmental influencers” (Berg LLC, priority 2009, dated 2019).
Like-named read-outs stand apart in the source and are kept apart here.

Assays:
[1] = test system: HAEC, MCF-7, HepG2 and PC-3 cell lines; experiment: OCR and ECAR, SeaHorse XF analyzer (data not shown); format: cell-based, human; conditions: absence and/or presence of stressors (hyperglycemia, hypoxia, lactic acid)
Protocol: (§1) (SeaHorse Biosciences Inc, North Billerica, Mass.).
A similar comparison of OCR and ECAR values (data not shown) were determined in numerous other normal and cancer cells lines, including: HAEC (normal human aortic endothelial cells), MCF-7 (breast cancer), HepG2 (liver cancer) and highly metastatic PC-3 (prostate cancer) cell lines. […] Thus, the overall effect of CoQ10 in the treatment of cancer, including cell death, is an downstream effect of its collective influence on proteomic, genomic, metabolomic outcomes in concert with shifting of the cellular bioenergetics from glycolysis to mitochondrial OXPHOS.

HDFa cells = experiment: OCR and ECAR, SeaHorse XF analyzer; format: cell-based, human
From the text: as §1
In this experiment, the OCR and extracellular acidification rate (ECAR) in normal cells lines were obtained in the presence and absence of CoQ10 to determine baseline values. It was observed that in its native nutrient environment, the basal OCR rates in normal cells lines are different, and are usually a function of the physiological roles of the cells in the body. […]
Table 97 below describes the ECAR values (mpH/min) in HDFa cells in the presence or absence of CoQ10 under normoxic and hypoxic conditions at 5.5 mM and 22 mM glucose.

SCC cells [2] = experiment: Real-time PCR Heat Shock Protein Array; format: cell-based
From the text: (§2) The control cells were untreated cells.
Heat Shock Arrays were run for SCC cells and the data of regulated genes is summarized below in Table 13.

[3] = test system: induced pancreatic cancer; conditions: for survival after 28 days: intravenous
SKMEL-28 cells = experiment: 2-D gel electrophoresis proteomic analysis; format: cell-based
Protocol: Protein was isolated from the treated and control flask after 4, 8, 12, and 24 hours. For isolation of proteins, cells were washed three times with 5 mL of ice cold PBS at a pH of 7.4. The cells were then scraped in 3 mL of PBS, pelleted by centrifuge, and re-suspended in a lysis buffer at pH 7.4 (80 mM TRIS-HCl, 1% SDS, with protease and phosphotase inhibitors). Protein concentrations were quantified using the BCA method.
The gels were run in duplicate.
The first experimental set processed and evaluated by Western blot and 2-D gel electrophoresis was the skin cancer cell line SKMEL-28.
A comparative analysis of 943 spots across all twenty-four gels was performed, comparing the control sample against all of the treated samples. The analysis included the identification of spot changes over the time course due to increase, decrease, or post-translational modification.
The analysis found thirty-two statistically significant differential spot changes. […] The characterized peptides were searched against protein databases with Mascot and MSRAT software analysis to identify the protein (Table 2).

SCC cells [4] = experiment: Real-time PCR Diabetes Array; format: cell-based
From the text: as §2

SKBr3 = experiment: Nexin assay for apoptosis (Annexin-V-PE/7-AAD, flow cytometry); format: cell-based, human; conditions: 50 μM or 100 μM Q10, 24 hours
From the text: The 7AAD dye will enter into cells with permeabilized cell membranes; primarily those cells that are in late apoptosis. Annexin-V-PE is a dye that binds to Phosphotidyl serine, which is exposed on the outer surface of the plasma membrane in early apoptotic cells. The Nexin reagent thus can be used to differentiate between different populations of apoptotic cells in a flow cytometer.

[5] = 100 μM Q10, Down regulated at 6 hours

In the case of `COC1=C(OC)C(=O)C(C/C=C(\C)CC/C=C(\C)CC/C=C(\C)CC/C=C(\C)CC/C=C(\C)CC/C=C(\C)CC/C=C(\C)CC/C=C(\C)CC/C=C(\C)CCC=C(C)C)=C(C)C1=O` [Q10, Coenzyme Q10], the “OCR and ECAR values” [1] is reported as “shift in OCR and ECAR values representative of values observed in a normal cells under normal physiological conditions”, the ECAR (HDFa cells; 50 μM, Hypoxia (5.5 mM) glucose) is reported as 5 mpH/min and the ECAR (HDFa cells; 50 μM, Hypoxia (22 mM) glucose) is reported as 6 mpH/min. It also gave an ECAR (HDFa cells; 50 μM, Normoxia (5.5 mM) glucose) of 6 mpH/min, an ECAR (HDFa cells; 50 μM, Normoxia (22 mM) glucose) of 5 mpH/min and an ECAR (HDFa cells; 100 μM, Hypoxia (5.5 mM) glucose) of 5 mpH/min. The ECAR (HDFa cells; 100 μM, Hypoxia (22 mM) glucose) was 8 mpH/min, the ECAR (HDFa cells; 100 μM, Normoxia (5.5 mM) glucose) was 6 mpH/min and the ECAR (HDFa cells; 100 μM, Normoxia (22 mM) glucose) was 5 mpH/min. For the same molecule, the ECAR (HDFa cells; HDFa, high glucose hypoxic conditions) was “lowering of elevated ECAR to a value that was observed in untreated normoxic conditions”, the ECAR values (HDFa cells; HDFa, normoxic and hypoxic, 5.5 mM and 22 mM glucose) was “minimal influence on ECAR values” and the “DNAJB5 Regulation” value (SCC cells [2]; [5]) was “Down”. For the same molecule, the “DNAJB13 Regulation” value (SCC cells [2]; [5]) was “Down”, the “DNAJC4 Regulation” value (SCC cells [2]; [5]) was “Down” and the “DNAJC5B Regulation” value (SCC cells [2]; [5]) was “Down”. The “DNAJC12 Regulation” value (SCC cells [2]; [5]) was “Down”, the “CCT6B Regulation” value (SCC cells [2]; 100 μM Q10, Down regulated at 24 hours) was “Down” and the “DNAJA1 Regulation” value (SCC cells [2]; 100 μM Q10, at 6 hours) was “Up regulated”. For the same molecule, the “HSPA8 Regulation” value (SCC cells [2]; 100 μM Q10, at 6 hours) was “Up regulated”, the “HSPH1 Regulation” value (SCC cells [2]; 100 μM Q10, at 6 hours) was “Up regulated” and the “dose response of survival” value ([3]; 5 to 50 mg/kg) was “those animals receiving higher doses had a higher survival rate”. For the same molecule, the “survival after 28 days” value ([3]; Group G: 50 mg/kg) was “all of the animals receiving the highest dose of coenzyme Q10 (Group G) remained alive at 28 days”, the “survival after 28 days” value ([3]; Groups D, E, F: 5, 10, 25 mg/kg) was “most of the animals in Groups D, E and F remained alive” and the “Transaldolase 1 level” value (SKMEL-28 cells) was “decrease of Transaldolase 1”. The “TNFRSF1A Regulation” value (SCC cells [4]; 100 μM Q10, at 6 and 24 hours) was “Down regulated at 6”, the “G6PD Regulation” value (SCC cells [4]; 100 μM Q10, at 6 hours) was “Down regulated at 6” and the “ICAM1 Regulation” value (SCC cells [4]; 100 μM Q10, at 6 hours) was “Down regulated at 6”. For the same molecule, the “INPPL1 Regulation” value (SCC cells [4]; 100 μM Q10, at 6 hours) was “Down regulated at 6”, the “NOS3 Regulation” value (SCC cells [4]; 100 μM Q10, at 6 hours) was “Down regulated at 6” and the “PIK3CD Regulation” value (SCC cells [4]; 100 μM Q10, at 6 hours) was “Down regulated at 6”. For the same molecule, the “PPARA Regulation” value (SCC cells [4]; 100 μM Q10, at 6 hours) was “Down regulated at 6”, the “PYGL Regulation” value (SCC cells [4]; 100 μM Q10, at 6 hours) was “Down regulated at 6” and the “SREBF1 Regulation” value (SCC cells [4]; 100 μM Q10, at 6 hours) was “Down regulated at 6”. For the same molecule, the “STXBP2 Regulation” value (SCC cells [4]; 100 μM Q10, at 6 hours) was “Down regulated at 6”, the “TNF Regulation” value (SCC cells [4]; 100 μM Q10, at 6 hours) was “Down regulated at 6” and the “VEGFA Regulation” value (SCC cells [4]; 100 μM Q10, at 6 hours) was “Down regulated at 6”. For the same molecule, the “early and late apoptosis” value (SKBr3) was “did not show any significant increases of early and late apoptosis”.
